Measurements published in EP1785723A1, “Micro calorimetric analysis of mammalian cell susceptibility to agents that affect cell growth, metabolism and immune response, and use of micro calorimetric analysis in a transplantation test” (Stratos Bio Ltd., priority 2005, dated 2007).

How the values were obtained:
Bacillus Pumilus = test: Flow microcalorimetry, p-t curves of growing culture with antibiotics and mixtures; assay type: cell-based
Text: To the vertical face of the vessel close to its base, equidistantly spaced around the circumference, ports were fitted for an oxygen electrode and for sampling/inoculation. The fermenter was closed with a flat flanged glass lid which had five ports accommodating respectively, gas inlet tube, gas exhaust (via air condenser), inlet and outlet flow-lines to and from the calorimeter. The fermenter and lid was sealed with a p.t.f.e. gasket and clamped with a metal clip. The fermenter was placed on a magnetic stirring unit in a water jacket which allowed circulation of the thermostatically controlled water at 30°C or 37°C. The fermenter which contained a Teflon coated magnetic stirring bar, was sterilised by autoclaving.
For a typical calorimetric incubation the medium was passed through the calorimetric vessel at the same flow rate and temperature as those used in the experiment to establish a steady baseline deflection. The following operations then took place to a strict timetable. The liquid nitrogen stored ampoule was thawed at 38°C for 3 min and then stirred for 20 sec on a whirlimixer. The bacterial suspension (0.5-1.5ml) volumes was inoculated into the medium (100ml) two minutes after completion of thawing. A Gilson automatic pipette was used for inoculation. The calorimeter inlet flow-line was placed in the incubation medium 30 seconds after inoculation. […]

respiring E.coli = test: Flow microcalorimetry, p-t curves of respiring cells in glucose buffer; assay type: cell-based; conditions: for Effect on power: neomycin alone added to respiring E.coli, Fig. 16; for Effect on p-t curve / power output: Polymyxin B alone, concentration not stated, Fig. 15
Method: For a typical calorimetric incubation the medium was passed through the calorimetric vessel at the same flow rate and temperature as those used in the experiment to establish a steady baseline deflection. The following operations then took place to a strict timetable. The liquid nitrogen stored ampoule was thawed at 38°C for 3 min and then stirred for 20 sec on a whirlimixer. The bacterial suspension (0.5-1.5ml) volumes was inoculated into the medium (100ml) two minutes after completion of thawing. A Gilson automatic pipette was used for inoculation. The calorimeter inlet flow-line was placed in the incubation medium 30 seconds after inoculation. The flowing incubation medium reached the calorimetric vessel two min after inlet flow-line insertion. At this time the recording of the p-t curves was started. Eight min after inoculation the outflow from the calorimeter was returned to the fermenter (after the "baseline" medium had run to waste but before the inoculated medium ran to waste) thus making a closed system. Aeration was started as soon as the inlet tube was inserted in the fermenter. Microbiological purity of the culture was checked by plating out a sample of the culture at the end of each incubation on nutrient agar (lab M).
The output of calorimetric experiments is a plot of power (energy evolution per unit of time) as a function of time. The unit of power (p) is the Watt (W) and the unit of time is the hour (h). In some experiments seconds (s) were used as time unit.
E.coli was suspended in 10% DMSO prior to freezing and the viable counts were for batch 1: pre-freeze: 4.0 ± 0.6_ x 10^10 cfu/ml and post -freeze 2.0 ± 0.44 x 10^10 cfu/ml and for batch 2: pre-freeze: 3.45 ± 0.58 x 10^10 cfu/ml and post-freeze 2.93 ± 0.43 x 10^10 cfu/ml. The freezing rate for both batches was 20°C/min the survival rate was 50% for batch 1 and 85% for batch 2. These differences may have been due to batch 1 being kept for 24h at 4°C before being frozen.
The respiration experiments were carried out in glucose buffer at different pH. The respiration curves obtained from batch 1 (inoculum 2 x 10^10 cfu/ml) and batch 2 Inoculum 3.2 x 10^10 cfu/ml) were essentially similar and a mean was used as a reference). The respiration experiments were carried out at pH 7 for polymyxin and Znbacitracin and at pH 8 for neomycin. No differences in p-t control curves could be observed at pH 7 or pH 8.
The p-t curves rose and reached a plateau as has been observed for respiration of yeasts and some 20 min later fell to a lower plateau value. Prior incubation of the cells in the buffered glucose for periods up to 20 min before presentation to the calorimeter could reduce or entirely remove this effect.

[1] = POLB 6.3 ug/ml, respiration, pH 7

Compound	Effect on power output in growth studies (Bacillus Pumilus; concentration not given)	Linear dose-response range (respiring E.coli; NEO, respiration, pH 8)	Effect on heat output (respiring E.coli; all concentrations of Neomycin, respiring E.coli)	Effect on power (respiring E.coli; listed as Neomycin)	Effect on power (respiring E.coli; listed as neomycin)	Range of linear relationship between dose and the reciprocal of increase in response from the control curve (respiring E.coli; neomycin, respiring E.coli)	Time within which growth was inhibited completely (Bacillus Pumilus; 20ug/ml POLB, bacterial concentration printed '0?' as % of p-t curve, pH 8.00)	Observed effect on p-t curves (respiring E.coli; [1])	Time of return of p-t curve to baseline (respiring E.coli; [1])	Effect on p-t curve / power output (respiring E.coli; listed as Polymyxin B)	Effect on p-t curve / power output (respiring E.coli; listed as polymyxin B)
NC[C@@H]1O[C@H](O[C@H]2[C@@H](O)[C@H](O[C@@H]3[C@@H](O)[C@H](N)C[C@H](N)[C@H]3O[C@H]3O[C@H](CN)[C@@H](O)[C@H](O)[C@H]3N)O[C@@H]2CO)[C@H](N)[C@@H](O)[C@@H]1O [NEO, neomycin]	increase in power output	10 to 100 µg/mL	caused an increased heat output	caused an increase in power output	caused an increase in power	20 to 100 µg/mL	–	–	–	–	–
Polymyxin B [POLB]	–	–	–	–	–	–	Within 9 hours growth was inhibited completely	Reduced height of p-t curve initially	≤ 1 h	reduced the initial peak height and thereafter the p-t curve returned to baseline	severe reduction in power output followed by a return to baseline
